{"source": "PubChem BioAssay (NCI)", "experiment_in_all_cases": "growth of human tumour cells (NCI), 48 h", "key": {"[1]": {"tested_on": "NCI-H460 lung"}, "[2]": {"tested_on": "MOLT-4 leukemia"}, "[3]": {"tested_on": "OVCAR-5 ovarian"}, "[4]": {"tested_on": "SK-MEL-28 melanoma"}, "[5]": {"tested_on": "MDA-MB-435"}, "[6]": {"tested_on": "EKVX NSCLC"}, "[7]": {"tested_on": "NCI-H23 lung"}, "[8]": {"tested_on": "CAKI-1 renal"}, "[9]": {"tested_on": "T-47D breast"}, "[10]": {"tested_on": "SK-OV-3 ovarian"}, "[11]": {"tested_on": "TK-10 renal"}, "[12]": {"tested_on": "SN12C renal"}, "[13]": {"tested_on": "DU-145 prostate"}, "[14]": {"tested_on": "SNB-19 CNS"}, "[15]": {"tested_on": "UO-31 renal"}, "[16]": {"tested_on": "UACC-257 melanoma"}, "[17]": {"tested_on": "HS 578T breast"}, "[18]": {"tested_on": "RPMI-8226 leukemia"}, "[19]": {"tested_on": "NCI-H226 lung"}, "[20]": {"tested_on": "MDA-MB-231 breast"}, "[21]": {"tested_on": "LOX IMVI melanoma"}, "[22]": {"tested_on": "A498 renal"}, "[23]": {"tested_on": "HOP-62 NSCLC"}, "[24]": {"tested_on": "SR leukemia"}, "[25]": {"tested_on": "SNB-75 CNS"}, "[26]": {"tested_on": "RXF 393 renal"}, "[27]": {"tested_on": "BT-549 breast"}, "[28]": {"tested_on": "SF-295 CNS"}, "[29]": {"tested_on": "HOP-92 NSCLC"}}, "note": "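In this assay, cells in 96-well plates receive the compound at five concentrations for 48 hours. Endpoints are linearly interpolated between the surrounding concentrations. GI50: concentration for 50% inhibition of growth. TGI marks complete inhibition of growth.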", "data": [{"smiles": "CC(=O)Nc1ccc(-c2cn(-c3cccc(C(=O)Nc4cc(C(F)(F)F)cc(C(F)(F)F)c4)c3)nn2)cn1", "values": [{"measurement": "GI50", "setting": "[1]", "value": 4.2, "unit": "µM"}, {"measurement": "TGI", "setting": "[1]", "value": 15.2, "unit": "µM"}, {"measurement": "GI50", "setting": "[2]", "value": 1.94, "unit": "µM"}, {"measurement": "TGI", "setting": "[2]", "value": 6.12, "unit": "µM"}, {"measurement": "GI50", "setting": "[3]", "value": 18.7, "unit": "µM"}, {"measurement": "TGI", "setting": "[3]", "value": 38.9, "unit": "µM"}, {"measurement": "GI50", "setting": "[4]", "value": 12.9, "unit": "µM"}, {"measurement": "TGI", "setting": "[4]", "value": 29.3, "unit": "µM"}, {"measurement": "GI50", "setting": "[5]", "value": 11.7, "unit": "µM"}, {"measurement": "TGI", "setting": "[5]", "value": 28.1, "unit": "µM"}, {"measurement": "GI50", "setting": "[6]", "value": 11.2, "unit": "µM"}, {"measurement": "TGI", "setting": "[6]", "value": 36.1, "unit": "µM"}, {"measurement": "GI50", "setting": "[7]", "value": 14.2, "unit": "µM"}, {"measurement": "TGI", "setting": "[7]", "value": 33.5, "unit": "µM"}, {"measurement": "GI50", "setting": "[8]", "value": 17.3, "unit": "µM"}, {"measurement": "TGI", "setting": "[8]", "value": 45.1, "unit": "µM"}, {"measurement": "GI50", "setting": "[9]", "value": 19.1, "unit": "µM"}, {"measurement": "TGI", "setting": "[9]", "value": 91.6, "unit": "µM"}, {"measurement": "GI50", "setting": "[10]", "value": 13.5, "unit": "µM"}, {"measurement": "TGI", "setting": "[10]", "value": 34.1, "unit": "µM"}, {"measurement": "GI50", "setting": "[11]", "value": 26, "unit": "µM"}, {"measurement": "TGI", "setting": "[11]", "value": 49.3, "unit": "µM"}, {"measurement": "GI50", "setting": "[12]", "value": 11, "unit": "µM"}, {"measurement": "TGI", "setting": "[12]", "value": 28.1, "unit": "µM"}, {"measurement": "GI50", "setting": "[13]", "value": 10.4, "unit": "µM"}, {"measurement": "TGI", "setting": "[13]", "value": 29.5, "unit": "µM"}, {"measurement": "GI50", "setting": "[14]", "value": 19.9, "unit": "µM"}, {"measurement": "TGI", "setting": "[14]", "value": 50.2, "unit": "µM"}, {"measurement": "GI50", "setting": "[15]", "value": 19.5, "unit": "µM"}, {"measurement": "TGI", "setting": "[15]", "value": 37.2, "unit": "µM"}, {"measurement": "GI50", "setting": "[16]", "value": 12.9, "unit": "µM"}, {"measurement": "TGI", "setting": "[16]", "value": 36, "unit": "µM"}, {"measurement": "GI50", "setting": "[17]", "value": 6.17, "unit": "µM"}, {"measurement": "TGI", "setting": "[17]", "value": 48.9, "unit": "µM"}, {"measurement": "GI50", "setting": "[18]", "value": 3.46, "unit": "µM"}, {"measurement": "TGI", "setting": "[18]", "value": 15, "unit": "µM"}, {"measurement": "GI50", "setting": "[19]", "value": 13.8, "unit": "µM"}, {"measurement": "TGI", "setting": "[19]", "value": 30.1, "unit": "µM"}, {"measurement": "GI50", "setting": "[20]", "value": 7.51, "unit": "µM"}, {"measurement": "TGI", "setting": "[20]", "value": 25.1, "unit": "µM"}, {"measurement": "GI50", "setting": "[21]", "value": 4.53, "unit": "µM"}, {"measurement": "TGI", "setting": "[21]", "value": 16.3, "unit": "µM"}, {"measurement": "GI50", "setting": "[22]", "value": 25.4, "unit": "µM"}, {"measurement": "TGI", "setting": "[22]", "value": 42.1, "unit": "µM"}, {"measurement": "GI50", "setting": "[23]", "value": 8.56, "unit": "µM"}, {"measurement": "TGI", "setting": "[23]", "value": 22.5, "unit": "µM"}, {"measurement": "GI50", "setting": "[24]", "value": 1.89, "unit": "µM"}, {"measurement": "TGI", "setting": "[24]", "value": 5.18, "unit": "µM"}, {"measurement": "GI50", "setting": "[25]", "value": 5.84, "unit": "µM"}, {"measurement": "TGI", "setting": "[25]", "value": 28.4, "unit": "µM"}, {"measurement": "GI50", "setting": "[26]", "value": 11.2, "unit": "µM"}, {"measurement": "TGI", "setting": "[26]", "value": 26.4, "unit": "µM"}, {"measurement": "GI50", "setting": "[27]", "value": 3.37, "unit": "µM"}, {"measurement": "TGI", "setting": "[27]", "value": 8.51, "unit": "µM"}, {"measurement": "GI50", "setting": "[28]", "value": 14.2, "unit": "µM"}, {"measurement": "TGI", "setting": "[28]", "value": 37.3, "unit": "µM"}, {"measurement": "GI50", "setting": "[29]", "value": 2.7, "unit": "µM"}, {"measurement": "TGI", "setting": "[29]", "value": 8.6, "unit": "µM"}]}]}
